Tests used:
[1] = tested on: UMPS^WT/WT cells (GFP−); test: 5-FOA resistance in co-culture, FACS; format: cell-based, human; conditions: all tested 5-FOA concentrations
Text: (§1) To assess resistance to 5-FOA, the UMPS-KO hESCs were genetically engineered to express GFP from an expression cassette integrated into a safe-harbor locus for easier identification in co-culture with UMPS-WT cells.
(§2) These UMPS^KO/KO hESCs were mixed with UMPS^WT/WT cells that were not expressing GFP and followed up by fluorescence-activated cell sorting (FACS) analysis in the presence of different concentrations of 5-FOA. Table 16 provides counts of viable GFP+ and GFP− cells after culture with different 5-FOA concentrations.

[2] = tested on: UMPS^KO/KO hESCs (GFP+); test: 5-FOA resistance in co-culture, FACS; format: cell-based, human
Text: as §1, §2

[3] = tested on: UMPS^KO/KO/GFP^+ K562 cells mixed with UMPS^WT/WT/GFP-negative K562 cells; test: 5-FOA resistance in mixed culture; format: cell-based, human
Procedure: To determine the resistance of UMPS knockout cells to 5-FOA the purified UMPS^KO/KO/GFP^+ K562 cells were mixed at an equal ratio with UMPS^WT/WT/GFP-negative K562 cells. The cells were cultured in the presence of Uridine and different concentrations of 5-FOA (FIG. 6F).

[4] = tested on: UMPS-7 targeted T cells; test: 5-FOA selection, cell counts after 4 days; format: cell-based, human; conditions: for Average number of cells per volume unit: UMPS-7, grown in 5-FOA 4 days, UMP + Urid; for Average of cells per volume unit: UMPS-7, grown in 5-FOA without serum; for Survival in 5-FOA compared to control: both mock treated and UMPS targeted cells
Procedure: (§3) 5-FOA selects for uracil auxotrophic cells in other organisms (e.g. Boeke et al. 1984, Mol. Gen. Genet. 197(2):345-6), which is hereby incorporated by reference in its entirety). To investigate the potential utility of 5-FOA for the selection of uracil auxotrophs among human cells, the UMPS gene was targeted in human T cells by Cas9-gRNA complex electroporation followed by recovery (as shown in Example 2) followed by an assay of resistance to 5-FOA treatment (FIG. 3A). Cells were grown in 5-FOA and a variety of combinations of serum and uracil sources for 4 days before cell counting was performed.

[5] = tested on: Mock T cells; test: 5-FOA selection, cell counts after 4 days; format: cell-based, human; conditions: for Average number of cells per volume unit: grown in 5-FOA 4 days, UMP + Urid; for Average of cells per volume unit: grown in 5-FOA without serum
Procedure: as §3

[6] = tested on: UMPS-KO T cells mixed with wild-type T cells; test: 5-FOA selection in mixed population of T cells, FACS; format: cell-based, human
Text: To evaluate the possibility to select for UMPS^KO/KO cells with 5-FOA, the sorted cells were mixed with wild-type cells, which were labeled with different tracking dyes, and cultured in the presence or absence of 5-FOA. In part of the samples, 5-FOA was only added on the first day (Day 0) while in another group it was supplemented daily. Table 30 and FIG. 7C show the percent (%) of the UMPS-KO T cells (labelled with eFluor670) over time when culturing with or without 5-FOA.
In fact, FACS analysis of a culture of a mixed population of UMPS knockout and wild-type T cells with 5-FOA. UMPS-KO T cells were labeled with eFluor670, and wild-type cells were labeled with carboxyfluorescein succinimidyl ester (CFSE). […] On Day 0 in the control group not treated with 5-FOA, 47.7% of the cells were UMPS-KO T cells, and 52.1% were wild-type cells. On Day 3 in the group with 5-FOA supplemented daily, 74.0% of the cells were UMPS-KO T cells, while 25.8% were wild-type cells. On Day 3 in the control group not treated with 5-FOA, 43.1% of the cells were UMPS-KO T cells, and 56.4% were wild-type cells.

[7] = tested on: UMPS locus; test: InDel frequency at end of culture; format: cell-based, human; conditions: UMPS knockout T cells not exposed to 5-FOA, with metabolite, day 8
Text: To confirm the results on the genomic level, genomic DNA was harvested at the end of the experiment and InDels were quantified (FIG. 5D-FIG. 5E). FIG. 5D compares the frequency of InDels in different culture conditions for cells not exposed to 5-FOA.

[8] = tested on: CCR5 knockout T cells; test: Time course of cell counts with/without UMP or uridine; format: cell-based, human; conditions: with metabolite 250 μg/ml
Procedure: (§4) Cells were cryopreserved in BAMBANKER™ medium. After thawing cells were cultured at 37° C., 5% CO2 in X-Vivo 15 (Lonza) supplemented with or without 5% human serum (Sigma-Aldrich) and […] human recombinant IL-2 (Peprotech) and 10 ng/ml human recombinant IL-7 (BD Biosciences). UMP or Uridine was added at 250 μg/ml. 5-FOA was added at 100 μg/ml to 1 mg/ml. During culture, medium was refreshed every 2 days.
(§5) Genomic DNA was harvested using QUICKEXTRACT™ DNA Extraction Kit (Epicentre). Cells were counted on an automated cell counter using Trypan blue staining or on a CytoFLEX flow cytometer (Beckman Coulter) with automatic plate reader using COUNTBRIGHT™ beads (ThermoFisher) as a reference for normalizing the values. Alternatively, cells were analyzed after staining with fluorochrome-labelled antibodies (Biolegend) on an ACCURI™ C6 flow cytometer (BD Biosciences), which also measures volumes, or a FACS ARIA™ II SORP cell sorter (BD Biosciences). Data was analyzed using Excel (Microsoft) and FlowJo software (Tree Star).
(§6) T Cells were electroporated and edited as in Example 2 and allowed to recover for a 4-day period in medium with serum, uridine, and UMP. On day 4, cells were shifted to UMP, uridine, or uracil source media.

[9] = tested on: Mock edited T cells; test: as above; format: cell-based, human; conditions: with metabolite 250 μg/ml
Procedure: as §4, §5, §6

[10] = tested on: UMPS knockout T cells; test: as above; format: cell-based, human; conditions: to the same level as mock edited cells
Procedure: as §4, §5, §6

[11] = tested on: UMPS knockout T cells; test: Cell counts over time after electroporation (Trypan blue); format: cell-based, human; conditions: supplemented at 250 μg/ml
Text: To evaluate whether the UMPS knockout leads to differential cell proliferation if cultured without the addition of Uridine or Uridine monophosphate (UMP), the cell counts in culture were followed over time by automatic cell counting with Trypan blue staining. UMPS knockout led to lower cell counts from day 2 after electroporation, compared to cells that were mock electroporated or electroporated using Cas9 targeting a different genomic locus (i.e., CCR5) (FIG. 5B).
In contrast, cell proliferation was not impaired after UMPS knockout if UMP or Uridine were supplemented at high concentrations (250 μg/ml each) (FIG. 5C).

[12] = tested on: UMPS^KO/KO hESCs; test: Auxotrophy assay with different uridine concentrations; format: cell-based, human; conditions: 2.5-250 μg/ml uridine, day 4
Procedure: The UMP S locus was disrupted in the hESCs by electroporation of Cas9 RNP and selection of a clone with InDels in exon 1 as evaluated by amplification and Sanger sequencing of the genomic locus. For gene editing, hESCs were treated with 10 μm ROCK inhibitor (Y-27632) for 24 hours before electroporation. Cells at 70-80% confluence were harvested with ACCUTASE® solution (Life Technologies). 500,000 cells were used per reaction with a SpCas9 concentration of 150 μg/mL (Integrated DNA Technologies) and a Cas9:sgRNA molar ratio of 1:3 and electroporation performed in P3 Primary Cell solution (Lonza) in 16-well NUCLEOCUVETTE™ Strips in the 4D NUCLEOFECTOR system (Lonza). Immediately after electroporation, cells were transferred into one well of a […]® protein mixture (Corning, Inc.)-coated 24 well plate containing 500 μl of mTeSR™ media ([…] Technologies) with 10 μM Y-27632. Media was changed 24 hours after editing and Y-27632 was removed 48 hours after.
An auxotrophy assay was performed over four days with different concentrations of uridine. Microscope photos of wells were taken on day 4 after seeding UMPS^KO/KO hESCs at similar densities and culturing in the presence of different uridine concentrations. […] Quantification of viable cells on day 4 after seeding to evaluate the effect of different uridine concentrations is shown in Table 15.

[13] = also broken down in the liver; cited from earlier work
[14] = tested on: UMPS locus; test: sgRNA activity screening, InDel quantification by ICE and ICE-D; format: cell-based, human; conditions: activated T cells, 4 days after electroporation with Cas9
Text: sgRNAs were acquired with chemical modifications from Synthego Corporation. The sgRNAs were complexed with Cas9 protein (IDT) at a molar ration of 2.5:1 (sgRNA:protein) and electroporated into activated T cells using a 4D-NUCLEOFECTOR™ system (Lonza). 4 days later, cells were harvested, and genomic DNA extracted using QUICKEXTRACT™ DNA Extraction Kit (Epicentre) according to the manufacturer's protocol. The sgRNA target site was amplified with specific primers (Table 18) and the amplicon sequenced by Sanger sequencing (MCLab, South San Francisco).
InDel quantification was performed on the sequences using the interference of CRISPR edits (ICE) and ICE-D online tools (ice.synthego.com) (FIG. 5A).

For `O=C(O)c1[nH]c(=O)[nH]c(=O)c1F` [5-FOA, 5-fluoroorotic acid], the “Sensitivity of UMPS-WT cells” value [1] was “sensitive”, the “Tolerance of UMPS-KO cells” value ([2]; 5-FOA 0.25 μg/ml) was “tolerated” and the “Proliferation of UMPS-KO cells” value ([2]; 5-FOA concentrations higher than 0.25 μg/ml) was “impaired proliferation”. The “Proliferation of cells with UMP knockouts” value ([3]; 5-FOA 10 and 100 μg/ml) was “proliferated well”, the “Cell growth of cells with UMP knockouts” value ([3]; highest 5-FOA concentration) was “slowed their cell growth down” and the “Average number of cells per volume unit” value ([4]; No Serum) was 72385.14. The “Average number of cells per volume unit” value ([4]; With Serum) was 72181.87, the “Average of cells per volume unit” value ([4]; UMP) was 58299.26 and the “Average of cells per volume unit” value ([4]; Uridine) was 77755.72. For the same molecule, the “Average number of cells per volume unit” value ([5]; No Serum) was 49125.44, the “Average number of cells per volume unit” value ([5]; With Serum) was 63071.71 and the “Average of cells per volume unit” value ([5]; UMP) was 24770.99. For the same molecule, the “Average of cells per volume unit” value ([5]; Uridine) was 53052.43, the “Percent of UMPS^KO/KO cells in mixed cell population” value ([6]; 5-FOA daily, Day 3) was 74.0% and the “wild-type cells among the cells (FACS)” value ([6]; 5-FOA only on the first day, Day 0) was 56.0%. The “UMPS-KO T cells among the cells (FACS)” value ([6]; 5-FOA supplemented daily, Day 3) was 74.0%.

For `O=c1ccn([C@@H]2O[C@H](COP(=O)(O)O)[C@@H](O)[C@H]2O)c(=O)[nH]1` [UMP, Uridine monophosphate], the “Frameshift InDel frequency” value [7] was 46.1%, the “Overall InDel frequency” value [7] was 71.1% and the Cell density ([8]; Day 2) was 1.80E+06 cells per ml. The Cell density ([8]; Day 6) was 3.80E+06 cells per ml, the Cell density ([9]; Day 4) was 3.80E+06 cells per ml and the Cell density ([9]; Day 8) was 3.90E+06 cells per ml. For the same molecule, the “Growth of UMPS edited culture” value [10] was “rescued the growth”, the “Cell proliferation after UMPS knockout” value [11] was “not impaired” and the “Survival in 5-FOA compared to control” value [4] was “improved the survival”.

For `O=c1ccn([C@@H]2O[C@H](CO)[C@@H](O)[C@H]2O)c(=O)[nH]1` [Uridine, uridine], the “Frameshift InDel frequency” value [7] was 52.5%, the “Overall InDel frequency” value [7] was 77.0% and the “Proliferation (microscope photos)” value [12] was “proliferated”. The Cell density ([8]; Day 4) was 3.70E+06 cells per ml, the Cell density ([9]; Day 4) was 3.90E+06 cells per ml and the “Growth of UMPS edited culture” value [10] was “rescued the growth”. The “Absorption in the gastrointestinal tract” value [13] was “poorly absorbed”, the “Cell proliferation after UMPS knockout” value [11] was “not impaired” and the “Survival in 5-FOA compared to control” value [4] was “improved the survival”.

B1: UMPS-7: sgRNA targeting exon 1 of UMPS, SEQ ID NO: 1; target sequence + PAM SEQ ID NO: 5 (nucleic acid)
guide: GCCCCGCAGAUCGAUGUAGAGUUUUAGAGCUAGAAAUAGCAAGUUAAAAUAAGGCUAGUCCGUUAUCAACUUGAAAAAGUGGCACCGAGUCGGUGCUUUU
modifications: listed as RNA, chemistry not given here
With B1 the “ICE InDels” value [14] was 39% and the “ICE-D InDels” value [14] was 93%.

— patent publication US20220290103A1, “METHODS AND COMPOSITIONS USING AUXOTROPHIC REGULATABLE CELLS” (AUXOLYTIC LTD, priority 2019, published 2022)
